Experiment [1] deals with ^18F-AV-1451 binding sites in AD brains. More on the design: method as in Ni et al. (unpublished data). The note with it: versus ^18F-AV-1451, ref Ni et al. (unpublished data), cited from earlier work.
Experiment [2] concerns ^3H-THK5351 binding sites in the hippocampus. More on the design: method as in Lemoine et al. [12]. Particulars: ref Lemoine et al. [12], cited from earlier work; for Fraction of sites with super-high affinity for the competitor (%): radioligand ^3H-THK5351.
A further experiment concerns the target AD tissue. The note with it: ref [7], [21], cited from earlier work.
Experiment [3] deals with ^3H-MK6240 binding sites in the temporal cortex (Homo sapiens, UniProt P10636). Description: Competitive binding assay with ^3H-MK6240 (0.5 nM) on AD temporal cortex homogenates. The note with it: for Fraction of sites with super-high affinity for the competitor (%): radioligand ^3H-MK6240, temporal cortex; for IC50: 2-site competition model, temporal cortex. As for the experimental part:
(§1) Frozen post-mortem tissue from eight AD and seven control brains from the Netherlands Brain Bank (NBB) was homogenized in phosphate buffer saline (PBS) with additional 0.1% bovine serum albumin (BSA; […]) and protease/phosphatase inhibitors (10 μL/mL).
Competitive binding assays with ^3H-MK6240 (0.5 nM) were carried out for 90 min at 37 °C on temporal cortex homogenates from two AD brains, in PBS + 0.1% BSA (pH 7.4), using increasing concentrations of unlabelled MK6240, unlabelled THK5117 or unlabelled AV-1451 (1.10^−14–1.10^−5 M). The binding assay was terminated as described above. The half-maximal […] concentration (IC50) was determined using GraphPad Prism software and data were analysed using a 2-site competition model.

Experiment [4] deals with ^3H-AV-1451 binding sites. Also on record: method as in Hostetler et al. [21]. The note with it: ref Hostetler et al. [21]; cited from earlier work.
The subject of experiment [5] is ^3H-THK5351 binding sites in the hippocampus. As to the kind of experiment: Competitive binding assay with ^3H-THK5351 (1.5 nM) on AD hippocampus homogenates. Also on record: species or system human. As for the experimental part: as §1
Competitive binding assays were also carried out with ^3H-THK5351 (1.5 nM) in PBS + 0.1% BSA (pH 7.4) on hippocampus homogenates, using increasing concentrations of unlabelled MK6240 (1.10^−14–1.10^−5 M) in PBS + 0.1% BSA for 2 h at room temperature.

Where [6] appears, read: site 2, high affinity, read-out: IC50(High).
Setting [7] is: site 1, super-high affinity, read-out: IC50(supHigh).

Structures are written as SMILES. Read-outs that look alike come from different tables or passages of the source.

As a reminder, the Kd is the free concentration of one partner at which half of the binding sites on the other are occupied at equilibrium, for simple one-to-one binding. For orientation: IC50 means the concentration that inhibits the measured activity by half.

Chain of ^3H-MK6240 binding sites in the temporal cortex (P10636 623-695 limits assumed): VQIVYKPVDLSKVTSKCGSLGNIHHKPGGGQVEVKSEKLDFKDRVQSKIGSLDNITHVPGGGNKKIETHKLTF

For `Fc1ccc(-c2ccc3c(c2)[nH]c2ccncc23)cn1` [AV-1451], the “Proportion of sites with high affinity for the competitor” value in experiment [1] (frontal cortex) is 61%; in experiment [1] (temporal cortex of AD brains) it was 88%. Moreover, the “Low affinity sites, fraction” value in experiment [2] (^3H-THK5351 competitions) is given as 65%. In addition, the “Fraction of sites with super-high affinity for the competitor (%)” value (from here on “Fraction of sites … (%)”) in experiment [2] is on record as 35%; in experiment [3], 74%. Besides, the Kd on AD tissue (unit inferred) is 0.6 to 3.7 nM. For the same compound, in experiment [3] (^3H-MK6240 competitions), the “High affinity sites, fraction” value came out at 26%. In addition, the 50% inhibitory concentration (IC50) in experiment [3] (setting [6]) stood at 2 nM.

On to `Nc1c(F)ccc2cnc(-n3ccc4ccncc43)cc12` [MK6240], for which the “Competition with ^3H-AV-1451” value in experiment [4] is on record as “lack of competition”. The “Fraction of sites … (%)” value in experiment [5] (radioligand ^3H-THK5351, hippocampus) worked out at 0%; in experiment [3], 58%. In addition, the “Competition with ^3H-THK5351” value in experiment [5] (unlabelled MK6240 1.10^-14-1.10^-5 M, hippocampus of three AD patients) is “did not compete”. Further, the “High affinity sites, fraction” value in experiment [3] (^3H-MK6240 competitions) is 42%. For the same compound, the values for the IC50 in experiment [3] (setting [7]) and in experiment [3] (setting [6]) were 0.001 nM and 12 nM, respectively.

As to `CNc1ccc(-c2ccc3cc(OCC(O)CF)ccc3n2)cc1` (stereo not drawn) [THK5117], the “High affinity sites, fraction” value in experiment [2] (^3H-THK5351 competitions) is recorded as 54%. The “Fraction of sites … (%)” value in experiment [2] is reported as 46%; in experiment [3], 37%. Also, the Kd at AD tissue was 2.2 nM. In addition, the “Low affinity sites, fraction” value in experiment [3] (^3H-MK6240 competitions) was determined as 63%. The IC50 in experiment [3] (setting [7]) came to 0.002 nM; in experiment [3] (site 2, low affinity, read-out: IC50(low)), 304 nM.

In the case of `CNc1ccc(-c2ccc3cc(OC[C@H](O)CF)ccc3n2)cn1` [THK5351], the “High affinity sites, fraction” value in experiment [2] (^3H-THK5351 competitions) is on record as 38%. The “Fraction of sites … (%)” value in experiment [2] is on record as 62%.

The values above are taken from paper PMC8041708, “Characterization of MK6240, a tau PET tracer, in autopsy brain tissue from Alzheimer’s disease cases” (European Journal of Nuclear Medicine and Molecular Imaging, 2020).
